Data as given in patent US20150299801A1, “Techniques for Treating Acute Lymphoblastic Leukemia (ALL)” (THE TRUSTEES OF COLUMBIA UNIVERSITY IN THE CITY OF NEW YORK, priority 2012, published 2015).

Tests used:
[1] = system: CUTLL1 T-ALL cells expressing RFP control or wild type NT5C2; experiment: MTT cell viability and chemotherapy drug response, CUTLL1 control cells; assay type: cell-based; details: CUTLL1 cells expressing RFP control or NT5C2 WT; read from graph; read-out: log concentration at which viability falls to 50% (converted)
Procedure: (§1) To formally test the role of NT5C2 mutations in chemotherapy resistance, the effects of wild type and relapse-associated mutant NT5C2 expression were analyzed in the response of CCRF-CEM T-ALL cells to 6-mercaptopurine (6-MP) and 6-thyogunanine (6-TG). Expression of NT5C2 mutations in ALL cells induces resistance to chemotherapy with 6-MP and 6-TG. Viability assays were performed in CCRF-CEM and CUTLL1 T-ALL cells expressing wild type NT5C2, relapse-associated mutant NT5C2 alleles, or a red fluorescent protein (RFP) as control, treated with increased concentrations of the nucleoside analog chemotherapeutic drugs.
CCRF-CEM and CUTLL1 cells were cultured in RPMI-1640 media supplemented with 10% fetal bovine serum, 100U/ml penicillin G and 100 ug/ml streptomycin at 37 C in a humidified atmosphere under 5% CO2. HEK293T were maintained under similar conditions in DMEM media. […]
Cell viability was determined by measurement of the metabolic reduction of the tetrazolium salt MTT using the Cell Proliferation Kit I (Roche, of Indianapolis, Ind.) following the manufacturer instructions. […] Viability was analyzed after 48 or 72 hours of initiation of treatment with 6-mercaptopurine, 6-thioguanine, nelarabine and Ara-G.

[2] = system: CCRF-CEM T-ALL cells expressing RFP control or wild type NT5C2; experiment: MTT cell viability and chemotherapy drug response, CCRF-CEM control cells; assay type: cell-based; details: Homo sapiens; CCRF-CEM cells expressing RFP control or NT5C2 WT; read from graph; read-out: log concentration at which viability falls to 50% (converted)
Procedure: as §1
(§2) CCRF-CEM and CUTLL1 cells were cultured in RPMI-1640 media supplemented with 10% fetal bovine serum, 100U/ml penicillin G and 100 ug/ml streptomycin at 37 C in a humidified atmosphere under 5% CO2. HEK293T were maintained under similar conditions in DMEM media.
(§3) The lentiviral constructs pLOC-NT5C2, pLOC-NT5C2 359, pLOC-I 367, pLOC-I 407 and the pLOC-RFP control plasmid were transfected with gag-pol and V-SVG expressing vectors into HEK293T cells using JetPEI transfection reagent (Polyplus, of Illkirch, France). Viral supernatants were collected after 48 h and used for infection of CCRF-CEM and CUTLL1 cells by spinoculation. After infection, cells were selected for 5 days in blasticidin and ficolled the day before experiments.
(§4) Cell viability was determined by measurement of the metabolic reduction of the tetrazolium salt MTT using the Cell Proliferation Kit I (Roche, of Indianapolis, Ind.) following the manufacturer instructions. Experiments were done in triplicates. Viability was analyzed after 48 or 72 hours of initiation of treatment with 6-mercaptopurine, 6-thioguanine, nelarabine and Ara-G.

[3] = system: CCRF-CEM T-ALL cells expressing relapse-associated mutant NT5C2 alleles; experiment: MTT cell viability and chemotherapy drug response, CCRF-CEM cells expressing mutant NT5C2; assay type: cell-based; details: for increase of IC50 for mutations versus control (RFP) or wild type (NT5C2 WT): CCRF-CEM cell line, NT5C2 R367Q, D407A; for IC50: Homo sapiens, CCRF-CEM cells expressing mutation (NT5C2 R367Q), read from graph, viability relative to vehicle treated cells, read-out: log concentration at which viability falls to 50% (converted); for resistance to therapy compared with empty vector and wild type NT5C2 controls: cells expressing NT5C2 K359Q, R367Q and D407A, increased drug concentrations
Procedure: as §1, §2, §3, §4

[4] = system: CUTLL1 T-ALL cells expressing relapse-associated mutant NT5C2 alleles; experiment: MTT cell viability and chemotherapy drug response, CUTLL1 cells expressing mutant NT5C2; assay type: cell-based; details: for increase of IC50 for mutations versus control (RFP) or wild type (NT5C2 WT): CUTLL1 cell line, NT5C2 R367Q, D407A
Procedure: as §1, §2, §3, §4

[5] = molecular target: T1, NT5C2 R291W (Homo sapiens, UniProt P49902, R291W); experiment: 5'-nucleotidase activity as a function of ATP concentration, R291W; assay type: biochemical
T1 construct: His6 (N); made in house; host or cells: Rosetta 2(DE3) E. coli (described for WT, K359Q, R367Q, D407A)

[6] = molecular target: T2, NT5C2 Q523X (Homo sapiens, UniProt P49902); experiment: 5'-nucleotidase activity as a function of ATP concentration, Q523X; assay type: biochemical
T2 construct: His6 (N); made in house; host or cells: Rosetta 2(DE3) E. coli (described for WT, K359Q, R367Q, D407A)

[7] = molecular target: T3, NT5C2 WT (Homo sapiens, UniProt P49902); experiment: 5'-nucleotidase activity as a function of ATP concentration, wild type; assay type: biochemical
T3 construct: Full length cDNA constructs encoding wild type NT5C2, NT5C2 K359Q, NT5C2 R367Q and NT5C2 D407A were cloned; His6 (N); made in house; host or cells: Rosetta 2(DE3) E. coli
Procedure: (§5) Biochemical nucleotidase assays measuring release of phosphate upon incubation of NT5C2 with phosphonucleodides were used, including a commercial kit that measures enzymatic activity. (See file DZ123A.php in subfolder reagents of folder products in the World Wide Web at domain diazyme in category corn.)
(§6) Full length cDNA constructs encoding wild type NT5C2, NT5C2 K359Q, NT5C2 R367Q and NT5C2 D407A were cloned with an N-terminal His6 tag in the pET28a-LIC expression vector using the In-Fusion HD PCR cloning system (Clontech, of Mountain View, Calif.), as per manufacturer's instructions. Recombinant proteins were expressed from Rosetta 2(DE3) E. coli cells by induction with 0.5 mM isopropyl-β-D-thiogalactopyranoside for 3 hours at 37° C. […] Protein expression and purity was assessed y SDS-PAGE and Coomassie staining.
(§7) 5′-Nucleotidase activity of purified recombinant wild type and mutant NT5C2 proteins was assessed using the 5′-nucleotidase (5′-NT) Enzymatic Test Kit (Diazyme, of Poway, Calif.), according to the manufacturer's instructions. […] H2O2 is quantified using a Trinder reaction. 5′-Nucleotidase activity levels are calculated using a calibrator of known 5′-NT activity as standard. Assays were performed in triplicate in an Infinite M200 Tecan (of Mannedorf, Switzerland) plate reader.

[8] = system: NT5C2 K359Q, R367Q, D407A, L375F, R238W; experiment: 5'-nucleotidase activity as a function of ATP concentration, remaining mutations; assay type: biochemical, human
Procedure: as §5, §6, §7

[9] = read-out: A0.5, ATP concentration to achieve an activity equal to half Vmax

T1 sequence (P49902 whole entry R291W): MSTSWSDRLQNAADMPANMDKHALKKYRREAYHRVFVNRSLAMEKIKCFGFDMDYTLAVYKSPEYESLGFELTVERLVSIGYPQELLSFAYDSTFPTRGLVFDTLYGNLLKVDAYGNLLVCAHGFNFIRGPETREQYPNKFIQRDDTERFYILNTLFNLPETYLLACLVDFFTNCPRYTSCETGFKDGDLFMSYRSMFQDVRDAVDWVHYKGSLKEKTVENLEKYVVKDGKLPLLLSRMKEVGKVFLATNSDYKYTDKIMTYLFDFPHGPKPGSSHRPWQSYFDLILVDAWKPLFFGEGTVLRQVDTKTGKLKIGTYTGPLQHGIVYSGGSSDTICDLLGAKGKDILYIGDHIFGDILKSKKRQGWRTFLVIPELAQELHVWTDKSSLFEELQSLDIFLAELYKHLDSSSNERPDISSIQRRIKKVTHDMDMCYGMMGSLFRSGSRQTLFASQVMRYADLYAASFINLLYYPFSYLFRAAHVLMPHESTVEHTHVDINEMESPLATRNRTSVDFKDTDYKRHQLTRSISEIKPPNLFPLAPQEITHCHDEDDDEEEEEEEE
T2 sequence (P49902 1-522 limits assumed): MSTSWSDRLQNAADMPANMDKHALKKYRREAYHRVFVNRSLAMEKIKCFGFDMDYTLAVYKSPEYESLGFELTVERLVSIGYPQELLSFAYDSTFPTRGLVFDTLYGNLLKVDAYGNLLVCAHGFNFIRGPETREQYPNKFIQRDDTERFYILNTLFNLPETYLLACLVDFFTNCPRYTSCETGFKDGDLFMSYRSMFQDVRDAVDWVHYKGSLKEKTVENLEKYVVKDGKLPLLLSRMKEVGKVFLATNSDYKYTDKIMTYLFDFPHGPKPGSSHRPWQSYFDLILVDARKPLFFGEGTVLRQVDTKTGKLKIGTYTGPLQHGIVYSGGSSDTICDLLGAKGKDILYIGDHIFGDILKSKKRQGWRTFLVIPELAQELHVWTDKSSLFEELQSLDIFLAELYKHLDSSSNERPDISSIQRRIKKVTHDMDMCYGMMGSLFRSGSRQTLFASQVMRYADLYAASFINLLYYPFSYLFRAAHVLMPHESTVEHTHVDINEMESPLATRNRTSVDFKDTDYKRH

Row | Compound | IC50 [1] [µM] | IC50 [2] [µM] | increase of IC50 for mutations versus control (RFP) or wild type (NT5C2 WT) [3] | IC50 [3] [µM] | resistance to therapy compared with empty vector and wild type NT5C2 controls [3] | increase of IC50 for mutations versus control (RFP) or wild type (NT5C2 WT) [4] | activity in cells expressing relapse-associated NT5C2 mutations compared to controls [3] | further results
1 | Sc1ncnc2nc[nH]c12 [6-MP, 6-mercaptopurine] | ~6.31 | ~6.31 | about double | ~10 | increased resistance | greater than ten times as much |  | 
2 | Nc1nc2nc[nH]c2c(=S)[nH]1 [6-TG, 6-thioguanine] | ~1 | ~1 | greater than ten times as much |  | increased resistance | about double |  | IC50 ([4]; CUTLL1 cells expressing mutation NT5C2 R367Q, read from graph, read-out: log concentration at which viability falls to 50% (converted)): ~3.16 µM
3 | Nc1ncnc2c1ncn2[C@@H]1O[C@H](COP(=O)(O)OP(=O)(O)OP(=O)(O)O)[C@@H](O)[C@H]1O [ATP] |  |  |  |  |  |  |  | 5'-NT activity relative to 0 mM ATP (factor of increase) [5]: over 20; EC50 [5, 9]: ~4000 µM; 5'-NT activity relative to 0 mM ATP (factor of increase) [6]: over 20; EC50 [6, 9]: ~3000 µM; 5'-NT activity relative to 0 mM ATP (factor of increase) ([7]; ATP concentrations over 20 mM): over 60; EC50 [7, 9]: 19500 µM; 5'-NT activity relative to 0 mM ATP ([8]; K359Q, R367Q, D407A, L375F, R238W): little change between reference activity and maximum activity; EC50 ([8]; remaining mutations, read-out: A0.5, ATP concentration to achieve an activity equal to half Vmax): < 1000 µM
4 | Nc1nc2c(ncn2[C@@H]2O[C@H](CO)[C@@H](O)[C@@H]2O)c(=O)[nH]1 [AraG] |  |  |  |  |  |  | equally active | 
5 | COc1nc(N)nc2c1ncn2[C@@H]1O[C@H](CO)[C@@H](O)[C@@H]1O [nelarabine] |  | ~100 |  | ~100 |  |  | equally active | 
